Measurements as given in patent US11713307B2, “Heteroaryl-biphenyl amides for the treatment of PD-L1 diseases” (CHEMOCENTRYX, INC., priority 2019, dated 2023).

biological target: human PD-L1 (Homo sapiens (Human), UniProt Q9NZQ7); experiment: Enzyme-Linked Immunosorbent Assay—ELISA (PD-1/PD-L1 binding); conditions: plates coated with human PD-L1; Human PD-1 and biotin added; absorbance at 450 nm
Experimental: 96 Well plates were coated with 1 μg/mL of human PD-L1 (obtained from R&D) in PBS overnight at 4° C. The wells were then blocked with 2% BSA in PBS (W/V) with 0.05% TWEEN-20 for 1 hour at 37° C. The plates were washed 3 times with PBS/0.05% TWEEN-20 and the compounds were serial diluted (1:5) in dilution medium and added to the ELISA plates. Human PD-1 and biotin 0.3 μg/mL (ACRO Biosystems) were added and incubated for 1 hour at 37° C. then washed 3 times with PBS/0.05% TWEEN-20. A second block was performed with 2% BSA in PBS (W/V)/0.05% TWEEN-20 for 10 min at 37° C. and the plates were washed 3 times with PBS/0.05% TWEEN-20. Streptavidin-HRP was added for 1 hour at 37° C. then the plates were washed 3 times with PBS/0.05% TWEEN-20. TMB substrate was added and reacted for 20 min at 37° C. A stop solution (2 N aqueous H2SO4) was added. The absorbance was read at 450 nm using a micro-plate spectrophotometer. The results are shown in Table 1: IC50 values are provided as follows: from 1000 to 10,000 nM (+); from 10 up to 1000 nM (++); less than 10 nM (+++).

human PD-L1, sequence (Q9NZQ7 19-239): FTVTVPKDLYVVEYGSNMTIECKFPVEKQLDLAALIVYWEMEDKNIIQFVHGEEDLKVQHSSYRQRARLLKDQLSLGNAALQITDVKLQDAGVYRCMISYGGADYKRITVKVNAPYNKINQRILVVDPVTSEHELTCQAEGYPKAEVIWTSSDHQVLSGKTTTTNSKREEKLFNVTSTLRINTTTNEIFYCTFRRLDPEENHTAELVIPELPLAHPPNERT

SMILES | IC50
COc1nc(-c2cccc(-c3cccc(NC(=O)c4cn(C)c(=O)n(C)c4=O)c3C)c2Cl)ccc1CN[C@@H]1CNC(=O)C1 [Compound 1.007] | < 10 nM
COc1nc(-c2cccc(-c3cccc(NC(=O)c4cn(C)c(=O)n(C)c4=O)c3Cl)c2Cl)ccc1CNCC1(O)CC1 [Compound 1.035] | < 10 nM
Cc1c(NC(=O)c2cn(C)c(=O)n(C)c2=O)cccc1-c1cccc(-c2ccc(CNC[C@@H]3CCC(=O)N3)c(C(F)(F)F)n2)c1Cl [Compound 1.045] | < 10 nM
COc1nc(-c2cccc(-c3cccc(NC(=O)c4cn(C)c(=O)n(C)c4=O)c3C)c2Cl)ccc1CN1CC(C)(C(=O)O)C1 [Compound 1.053] | < 10 nM
COc1nc(-c2cccc(-c3cccc(NC(=O)c4cn(C)c(=O)n(C)c4=O)c3C)c2Cl)ccc1CN[C@H]1CCOC[C@H]1O [Compound 1.042] | < 10 nM
COc1nc(-c2cccc(-c3cccc(NC(=O)c4cn(C)c(=O)n(C)c4=O)c3C)c2Cl)ccc1CNC[C@@H](C)O [Compound 1.028] | < 10 nM
COc1nc(-c2cccc(-c3cccc(NC(=O)c4cn(C)c(=O)n(C)c4=O)c3Cl)c2Cl)ccc1CNCC(C)(C)C(N)=O [Compound 1.057] | < 10 nM
COc1nc(-c2cccc(-c3cccc(NC(=O)c4cn(C)c(=O)n(C)c4=O)c3Cl)c2Cl)cnc1CNC[C@@H]1CCC(=O)N1 [Compound 1.003] | < 10 nM
COc1nc(-c2cccc(-c3cccc(NC(=O)c4cn(C)c(=O)n(C)c4=O)c3C)c2Cl)ccc1CN1CC[C@](C)(O)C1 [Compound 1.019] | < 10 nM
COc1nc(-c2cccc(-c3cccc(NC(=O)c4cn(C)c(=O)n(C)c4=O)c3C)c2Cl)ccc1CNCC1(O)CC1 [Compound 1.022] | 1000 to 10000 nM
COc1nc(-c2cccc(-c3cccc(NC(=O)c4cn(C)c(=O)n(C)c4=O)c3Cl)c2Cl)ccc1CNCCO [Compound 1.039] | < 10 nM
COc1nc(-c2cccc(-c3cccc(NC(=O)c4cn(C)c(=O)n(C)c4=O)c3Cl)c2Cl)ccc1CNC[C@H](C)O [Compound 1.034] | < 10 nM
COc1nc(-c2cccc(-c3cccc(NC(=O)c4cn(C)c(=O)n(C)c4=O)c3C)c2Cl)ccc1CNC(C)(C)CCO [Compound 1.050] | < 10 nM
COc1nc(-c2cccc(-c3cccc(NC(=O)c4cn(C)c(=O)n(C)c4=O)c3Cl)c2Cl)ccc1CN1CC[C@@](C)(O)C1 [Compound 1.027] | < 10 nM
COc1nc(-c2cccc(-c3cccc(NC(=O)c4cn(C)c(=O)n(C)c4=O)c3Cl)c2Cl)cnc1CN[C@@H]1CCC(=O)NC1 [Compound 1.001] | < 10 nM
COc1nc(-c2cccc(-c3cccc(NC(=O)c4cn(C)c(=O)n(C)c4=O)c3C)c2Cl)ccc1CN[C@@H](C)CO [Compound 1.021] | < 10 nM
COc1nc(-c2cccc(-c3cccc(NC(=O)c4cn(C)c(=O)n(C)c4=O)c3C)c2Cl)ccc1CN1CC2(CNC(=O)N2)C1 [Compound 1.025] | < 10 nM
COc1nc(-c2cccc(-c3cccc(NC(=O)c4cn(C)c(=O)n(C)c4=O)c3C)c2Cl)ccc1CN[C@H]1CCOC[C@@H]1O [Compound 1.013] | < 10 nM
COc1nc(-c2cccc(-c3cccc(NC(=O)c4cn(C)c(=O)n(C)c4=O)c3C)c2Cl)ccc1CNCC(C)(C)CO [Compound 1.049] | < 10 nM
COc1nc(-c2cccc(-c3cccc(NC(=O)c4cn(C)c(=O)n(C)c4=O)c3C)c2Cl)ccc1CNCC1(C)CCC(=O)N1 (stereo not drawn) [Compound 1.015] | < 10 nM
COc1nc(-c2cccc(-c3cccc(NC(=O)c4cn(C)c(=O)n(C)c4=O)c3C)c2Cl)ccc1CN[C@@H]1CCC[C@@H]1O [Compound 1.011] | < 10 nM
COc1nc(-c2cccc(-c3cccc(NC(=O)c4cn(C)c(=O)n(C)c4=O)c3C)c2Cl)ccc1CNC(C)C [Compound 1.037] | < 10 nM
CCc1nc(-c2cccc(-c3cccc(NC(=O)c4cn(C)c(=O)n(C)c4=O)c3C)c2Cl)ccc1CNC[C@@H]1CCC(=O)N1 [Compound 1.054] | < 10 nM
COc1nc(-c2cccc(-c3cccc(NC(=O)c4cn(C)c(=O)n(C)c4=O)c3C)c2Cl)ccc1CNC[C@@H]1CCC(=O)N1 [Compound 1.006] | < 10 nM
COc1nc(-c2cccc(-c3cccc(NC(=O)c4cn(C)c(=O)n(C)c4=O)c3C)c2Cl)ccc1CNCC(=O)O [Compound 1.051] | < 10 nM
COc1nc(-c2cccc(-c3cccc(NC(=O)c4cn(C)c(=O)n(C)c4=O)c3C)c2C#N)ccc1CN[C@@H]1CCOC[C@@H]1O [Compound 1.026] | < 10 nM
COc1nc(-c2cccc(-c3cccc(NC(=O)c4cn(C)c(=O)n(C)c4=O)c3Cl)c2Cl)cnc1CN[C@@H]1CCOC[C@@H]1O [Compound 1.005] | < 10 nM
COc1nc(-c2cccc(-c3cccc(NC(=O)c4cn(C)c(=O)n(C)c4=O)c3C)c2Cl)ccc1CNC[C@@H](O)CO [Compound 1.044] | < 10 nM
COc1nc(-c2cccc(-c3cccc(NC(=O)c4cn(C)c(=O)n(C)c4=O)c3Cl)c2Cl)cnc1CN[C@@H]1CNC(=O)C1 [Compound 1.002] | < 10 nM
COc1nc(-c2cccc(-c3cccc(NC(=O)c4cn(C)c(=O)n(C)c4=O)c3Cl)c2F)ccc1CN[C@@H]1CCOC[C@@H]1O [Compound 1.018] | < 10 nM

Continued, values first:

IC50 | SMILES
< 10 nM | COc1nc(-c2cccc(-c3cccc(NC(=O)c4cn(C)c(=O)n(C)c4=O)c3C)c2Cl)cnc1CN[C@@H]1CCOC[C@@H]1O [Compound 1.078]
< 10 nM | COc1nc(-c2cccc(-c3cccc(NC(=O)c4cn(C)c(=O)n(C)c4=O)c3Cl)c2Cl)ccc1CN1CC[C@@H](C(=O)O)C1 [Compound 1.074]
< 10 nM | COc1nc(-c2cccc(-c3cccc(NC(=O)c4cn(C)c(=O)n(C)c4=O)c3Cl)c2Cl)ccc1CN1CC(C(=O)O)C1 [Compound 1.084]
< 10 nM | COc1nc(-c2cccc(-c3cccc(NC(=O)c4cn(C)c(=O)n(C)c4=O)c3C)c2Cl)ccc1CN1CC2(CCNC2=O)C1 [Compound 1.092]
10 to 1000 nM | CCc1nc(-c2cccc(-c3cccc(NC(=O)c4cn(C)c(=O)n(C)c4=O)c3Cl)c2Cl)ccc1CN1CC(O)C1 [Compound 1.072]
< 10 nM | COc1cc(-c2cccc(-c3cccc(NC(=O)c4cn(C)c(=O)n(C)c4=O)c3Cl)c2Cl)ncc1CNC[C@@H]1CCC(=O)N1 [Compound 1.093]
< 10 nM | CCc1nc(-c2cccc(-c3cccc(NC(=O)c4cn(C)c(=O)n(C)c4=O)c3Cl)c2Cl)ccc1CN[C@@H]1CCOC[C@@H]1O [Compound 1.075]
< 10 nM | COc1nc(-c2cccc(-c3cccc(NC(=O)c4cn(C)c(=O)n(C)c4=O)c3Cl)c2Cl)ccc1CN1CC(NS(C)(=O)=O)C1 [Compound 1.073]
< 10 nM | COc1nc(-c2cccc(-c3cccc(NC(=O)c4cn(C)c(=O)n(C)c4=O)c3C)c2Cl)ccc1CN1CC2(CCC(=O)N2)C1 [Compound 1.096]
< 10 nM | COc1nc(-c2cccc(-c3cccc(NC(=O)c4cn(C)c(=O)n(C)c4=O)c3Cl)c2Cl)ccc1CNC[C@H]1CCC(=O)N1 [Compound 1.066]
< 10 nM | COc1cc(-c2cccc(-c3cccc(NC(=O)c4cn(C)c(=O)n(C)c4=O)c3Cl)c2Cl)ncc1CN[C@@H]1CCOC[C@@H]1O [Compound 1.097]
< 10 nM | COc1nc(-c2cccc(-c3cccc(NC(=O)c4cn(C)c(=O)n(C)c4=O)c3Cl)c2Cl)ncc1CN[C@@H]1CCOC[C@@H]1O [Compound 1.089]
< 10 nM | COc1nc(-c2cccc(-c3cccc(NC(=O)c4cccn(C)c4=O)c3Cl)c2Cl)ccc1CNC[C@@H]1CCC(=O)N1 [Compound 1.069]
< 10 nM | COc1nc(-c2cccc(-c3cccc(NC(=O)c4nn(C)c(=O)n(C)c4=O)c3Cl)c2Cl)ccc1CNC[C@@H]1CCC(=O)N1 [Compound 1.064]
< 10 nM | COc1nc(-c2cccc(-c3cccc(NC(=O)c4cn(C)c(=O)n(C)c4=O)c3Cl)c2Cl)ncc1CNC[C@@H]1CCC(=O)N1 [Compound 1.081]
< 10 nM | COc1nc(-c2cccc(-c3cccc(NC(=O)c4cn(C)c(=O)n(C)c4=O)c3Cl)c2Cl)cnc1CN1CC2(CCNC2=O)C1 [Compound 1.102]
< 10 nM | COc1nc(-c2cccc(-c3cccc(NC(=O)c4cn(C)c(=O)n(C)c4=O)c3C)c2Cl)ccc1CN1CC(O)C1 [Compound 1.095]
< 10 nM | COc1nc(-c2cccc(-c3cccc(NC(=O)c4cn(C)c(=O)n(C)c4=O)c3Cl)c2Cl)cnc1CN1CC(C(=O)O)C1 [Compound 1.100]
< 10 nM | CCc1nc(-c2cccc(-c3cccc(NC(=O)c4cn(C)c(=O)n(C)c4=O)c3Cl)c2Cl)ccc1CNC[C@@H]1CCC(=O)N1 [Compound 1.076]
< 10 nM | COc1nc(-c2cccc(-c3cccc(NC(=O)c4cn(C)c(=O)n(C)c4=O)c3Cl)c2Cl)cnc1CN1CC(C)(C(=O)O)C1 [Compound 1.099]
< 10 nM | COc1nc(-c2cccc(-c3cccc(NC(=O)c4cn(C)c(=O)n(C)c4=O)c3Cl)c2Cl)ccc1CNC[C@@H]1CCC(=O)N1 [Compound 1.088]
< 10 nM | COc1nc(-c2cccc(-c3cccc(NC(=O)c4cn(C)c(=O)n(C)c4=O)c3Cl)c2Cl)ccc1CN[C@@H]1CCOC[C@@H]1O [Compound 1.087]
< 10 nM | COc1nc(-c2cccc(-c3cccc(NC(=O)c4cn(C)c(=O)n(C)c4=O)c3Cl)c2Cl)ccc1CN[C@@](C)(CO)C(=O)O [Compound 1.070]
< 10 nM | COc1cc(-c2cccc(-c3cccc(NC(=O)c4cn(C)c(=O)n(C)c4=O)c3Cl)c2Cl)ncc1CN1CC(C(=O)O)C1 [Compound 1.086]
